The target of the assay is T1, Recombinant truncated stromelysin (human sequence) (Homo sapiens, UniProt P08254).
T1 construct: made in house; host or cells: E. coli
T1 sequence (P08254 100-272 limits assumed): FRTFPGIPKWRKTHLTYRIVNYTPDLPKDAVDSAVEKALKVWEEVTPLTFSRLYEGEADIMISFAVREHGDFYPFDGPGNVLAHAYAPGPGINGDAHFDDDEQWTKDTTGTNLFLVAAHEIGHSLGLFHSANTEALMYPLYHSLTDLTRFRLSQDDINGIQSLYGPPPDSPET
Kind of assay: Determination of stromelysin inhibition (cleavage of thiopeptide ester substrate, DTNB colour read at 405 nm). The format is biochemical. Particulars: substrate Ac-Pro-Leu-Gly-[2-mercapto-4-methylpentanoyl]-Leu-Gly-OEt; 30 minute assay at ambient temperature; 50 mM MES/NaOH pH 6.5 with 10 mM CaCl2 and 0.2% Pluronic F-68. As to the method:
The efficacy of the compounds of this invention as matrix metalloproteinase inhibitors was determined by measuring the inhibition of stromelysin. The inhibition of stromelysin by the compounds of this invention was determined as follows: Recombinant truncated stromelysin (human sequence) produced in E. coli was prepared by expression and purification of the protein as described by Ye et al. (Biochemistry, 1992, 31, 11231-11235, which is incorporated herein by reference). The enzyme was assayed by its cleavage of the thiopeptide ester substrate Ac-Pro-Leu-Gly-[2-mercapto-4-methylpentanoyl]-Leu-Gly-OEt as described by Weingarten and Feder (Anal. Biochem., 1985, 147, 437-440 (1985), which is incorporated herein by reference) as a substrate of vertebrate collagenase. The reported conditions were modified to allow assays to be carried out in a microtiter plate. Upon hydrolysis of the thioester bond, the released thiol group reacted rapidly with 5,5'-dithio-bis(2-nitrobenzoic acid) (DTNB) to produce a yellow color which was measured by a microtiter plate reader set at 405 nm. The rates of cleavage of the substrate by stromelysin in the presence or absence of inhibitors were measured in a 30 minute assay at ambient temperature. Solutions of the compounds in DMSO were prepared, and these were diluted at various concentrations into the assay buffer (50 mM MES/NaOH pH 6.5 with 10 mM CaCl2 and 0.2% Pluronic F-68), which was also used for dilution of the enzyme and substrate. The potency of the compounds [IC50] was calculated from the inhibition/inhibitor concentration data.
What is called IC50 is the concentration that inhibits the measured activity by half. On to `CCCCC(COc1ccc(-c2ccc(C#N)cc2)cc1)N(O)C=O` (racemic) [Example 9, (±)-N-[1-[[(4'-cyano-[1,1'-biphenyl]-4-yl)oxy]methyl]pentyl]-N-hydroxyformamide], for which the IC50 came out at 100 nM.
Next, `N#Cc1ccc(-c2ccc(OCCN(O)C=O)cc2)cc1` [Example 15]: 620 nM; `CC(COc1ccc(-c2ccc(C#N)cc2)cc1)N(O)C=O` (racemic) [Example 13, (±)-N-[1-[[(4'-cyano-[1,1'-biphenyl]-4-yl)oxy]methyl]ethyl]-N-hydroxyformamide]: 310 nM; `N#Cc1ccc(-c2ccc(OCC(c3ccc(F)cc3)N(O)C=O)cc2)cc1` (racemic) [Example 11, (±)-N-[2-[(4'-cyano-[1,1'-biphenyl]-4-yl)oxy]-1-(4-fluorophenyl)ethyl)-N-hydroxyformamide]: 300 nM.
With `CCC(C)C(COc1ccc(-c2ccc(C#N)cc2)cc1)N(O)C=O` (racemic) [Example 8, (± )-N-[1-[[(4'-cyano-[1,1'-biphenyl]-4-yl)oxy]methyl]-2-methylbutyl]-N-hydroxyformamide], the IC50 was 170 nM.
Next, `CC(=O)N(O)CCOc1ccc(-c2ccc(C#N)cc2)cc1` [Example 14, N-[2-[(4'-cyano-[1,1'-biphenyl]-4-yl)oxy]ethyl]-N-hydroxyacetamide]: 4000 nM.
In the case of `N#Cc1ccc(-c2ccc(OCC(CN3C(=O)c4ccccc4C3=O)N(O)C=O)cc2)cc1` (racemic) [Example 3, (±)-N-[1-[[(4'-cyano-[1,1'-biphenyl]-4-yl)oxy]methyl]-2-(2,3-dihydro-1,3-dioxo-1H-isoindol-2-yl)ethyl]-N-hydroxyformamide] it was 21 nM; in that of `Cc1ccc(CC(COc2ccc(-c3ccc(C#N)cc3)cc2)N(O)C=O)cc1` (racemic) [Example 10, (±)-N-[1-[[(4'-cyano-[1,1'-biphenyl]-4-yl)oxy]methyl]-2-(4-methylphenyl)ethyl]-N-hydroxyformamide], 1500 nM; in that of `N#Cc1ccc(-c2ccc(OCC(COc3ccccc3)N(O)C=O)cc2)cc1` (racemic) [Example 1, (±)-N-[1-[[(4'-cyano-[1,1'-biphenyl]-4-yl)oxy]methyl]-2-phenoxyethyl]-N-hydroxyformamide], 130 nM.
Next, `CCCCC(COc1ccc(-c2cccc(CC#N)c2)cc1)N(O)C=O` (racemic) [Example 6, (±)-N-[1-[[[3'-(cyanomethyl)-[1,1'-biphenyl]-4-yl]oxy]methyl]pentyl]-N-hydroxyformamide]: 30 nM; `N#Cc1ccc(-c2ccc(OCC(CSc3ccccc3)N(O)C=O)cc2)cc1` (racemic) [Example 2, (±)-N-[1-[[(4'-cyano-[1,1'-biphenyl]-4-yl)oxy]methyl]-2-(phenylthio)ethyl]-N-hydroxyformamide]: 36 nM; `N#Cc1ccc(-c2ccc(OCC(Cc3ccc(F)cc3)N(O)C=O)cc2)cc1` (racemic) [Example 12, (±)-N-[1-[[(4'-cyano-[1,1'-biphenyl]-4-yl)oxy]methyl]-2-(4-fluorophenyl)ethyl]-N-hydroxyformamide]: 180 nM.

The record behind these values is EP1001930B1, “N-HYDROXYFORMAMIDE DERIVATIVES AS INHIBITORS OF MATRIX METALLOPROTEINASES” (Abbott Laboratories, priority 1997, dated 1999).
